These results are taken from patent US10221197B2, “Phosphatidylinositol 3-kinase inhibitors” (Gilead Sciences, Inc., priority 2014, dated 2019).

Where two headings read alike, the source gives them in different places.

Common to all, as to type: biochemical
One experiment deals with PI3Kβ (Homo sapiens (Human), UniProt P42338). Description: TR-FRET enzymatic assay of PI3K isoforms (PI3Kβ). To be noted: for IC50: TR-FRET, 2×Km ATP, 2 μM PIP2, incubated for 30 minutes at 25° C., read-out: β IC50; for PI3Kγ/PI3Kβ ratio: ratio of IC50 values, selectivity for PI3Kβ over PI3Kγ. Here is the method:
(§1) The compounds of formula (I) were characterized for their enzymatic activity against the PI3K isoforms. Certain compounds of the present application, including certain compounds of formula (II) and (III) were also characterized for their enzymatic activity against PI3K isoforms. The activities were measured using a time-resolved fluorescence resonance energy transfer (TR-FRET) assay.
For orientation: In TR-FRET formats the signal depends on donor and acceptor labels being close together.

A further experiment concerns the target PI3Kδ (Homo sapiens (Human), UniProt O00329). Briefly: TR-FRET enzymatic assay of PI3K isoforms (PI3Kδ). To be noted: 2×Km ATP, 2 μM PIP2, incubated for 30 minutes at 25° C., read-out: δ IC50. Here is the method:
as §1

The next experiment concerns the target PI3Kγ (Homo sapiens (Human), UniProt P48736). Briefly: TR-FRET enzymatic assay of PI3K isoforms (PI3Kγ). The following applies: read-out: γ IC50. Here is the method: as §1
Where [1] appears, read: TR-FRET, 2×Km ATP, 2 μM PIP2, PI3Kγ at 2 nM, incubated for 30 minutes at 25° C.

Sequence of PI3Kβ (P42338 whole entry, canonical isoform): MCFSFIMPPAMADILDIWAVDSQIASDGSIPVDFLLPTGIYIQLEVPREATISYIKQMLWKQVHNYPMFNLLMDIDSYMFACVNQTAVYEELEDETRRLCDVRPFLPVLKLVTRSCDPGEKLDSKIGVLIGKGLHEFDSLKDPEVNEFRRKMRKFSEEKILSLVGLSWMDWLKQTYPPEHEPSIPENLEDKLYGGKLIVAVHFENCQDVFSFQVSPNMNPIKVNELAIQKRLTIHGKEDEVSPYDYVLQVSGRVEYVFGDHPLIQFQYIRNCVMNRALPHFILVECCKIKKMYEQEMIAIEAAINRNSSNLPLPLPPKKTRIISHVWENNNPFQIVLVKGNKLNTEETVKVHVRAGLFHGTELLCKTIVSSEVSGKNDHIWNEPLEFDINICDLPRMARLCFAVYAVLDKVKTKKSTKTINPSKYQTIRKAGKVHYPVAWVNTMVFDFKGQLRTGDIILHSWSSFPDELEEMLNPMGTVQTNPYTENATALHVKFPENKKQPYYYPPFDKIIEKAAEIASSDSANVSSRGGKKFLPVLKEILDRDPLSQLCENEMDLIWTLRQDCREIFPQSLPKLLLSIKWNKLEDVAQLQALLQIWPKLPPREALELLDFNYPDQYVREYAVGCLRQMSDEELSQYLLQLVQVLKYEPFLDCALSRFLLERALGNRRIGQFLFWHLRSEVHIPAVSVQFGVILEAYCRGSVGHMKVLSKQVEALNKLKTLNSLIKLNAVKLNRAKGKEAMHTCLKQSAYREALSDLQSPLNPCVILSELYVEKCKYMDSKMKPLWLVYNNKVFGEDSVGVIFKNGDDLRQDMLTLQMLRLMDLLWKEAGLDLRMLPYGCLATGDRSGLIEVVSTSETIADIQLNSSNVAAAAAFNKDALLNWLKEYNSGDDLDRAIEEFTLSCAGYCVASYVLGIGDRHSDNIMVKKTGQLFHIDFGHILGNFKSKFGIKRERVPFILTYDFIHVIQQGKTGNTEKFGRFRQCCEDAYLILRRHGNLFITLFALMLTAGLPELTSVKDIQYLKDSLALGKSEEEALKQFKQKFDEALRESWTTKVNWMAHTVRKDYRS
Sequence of PI3Kβ (P27986 whole entry partner, canonical isoform): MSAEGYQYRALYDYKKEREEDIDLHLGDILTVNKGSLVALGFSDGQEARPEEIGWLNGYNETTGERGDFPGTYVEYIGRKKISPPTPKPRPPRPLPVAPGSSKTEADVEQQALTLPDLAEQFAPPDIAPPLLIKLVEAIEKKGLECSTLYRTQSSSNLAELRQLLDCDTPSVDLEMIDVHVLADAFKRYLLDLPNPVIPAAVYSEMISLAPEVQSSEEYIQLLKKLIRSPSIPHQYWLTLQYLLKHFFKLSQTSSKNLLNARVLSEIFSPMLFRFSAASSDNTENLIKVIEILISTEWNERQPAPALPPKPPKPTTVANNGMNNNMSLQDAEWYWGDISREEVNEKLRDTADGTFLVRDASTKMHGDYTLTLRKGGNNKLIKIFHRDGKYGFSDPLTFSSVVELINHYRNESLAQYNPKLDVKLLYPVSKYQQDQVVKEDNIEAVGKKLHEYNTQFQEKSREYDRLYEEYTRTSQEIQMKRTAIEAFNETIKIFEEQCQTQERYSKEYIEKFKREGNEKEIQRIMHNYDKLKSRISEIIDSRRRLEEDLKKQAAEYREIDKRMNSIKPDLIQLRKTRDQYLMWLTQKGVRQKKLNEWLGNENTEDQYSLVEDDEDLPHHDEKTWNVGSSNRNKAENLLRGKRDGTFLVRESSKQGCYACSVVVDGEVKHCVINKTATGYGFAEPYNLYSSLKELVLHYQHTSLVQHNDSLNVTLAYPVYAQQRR
Sequence of PI3Kδ (O00329 whole entry, canonical isoform): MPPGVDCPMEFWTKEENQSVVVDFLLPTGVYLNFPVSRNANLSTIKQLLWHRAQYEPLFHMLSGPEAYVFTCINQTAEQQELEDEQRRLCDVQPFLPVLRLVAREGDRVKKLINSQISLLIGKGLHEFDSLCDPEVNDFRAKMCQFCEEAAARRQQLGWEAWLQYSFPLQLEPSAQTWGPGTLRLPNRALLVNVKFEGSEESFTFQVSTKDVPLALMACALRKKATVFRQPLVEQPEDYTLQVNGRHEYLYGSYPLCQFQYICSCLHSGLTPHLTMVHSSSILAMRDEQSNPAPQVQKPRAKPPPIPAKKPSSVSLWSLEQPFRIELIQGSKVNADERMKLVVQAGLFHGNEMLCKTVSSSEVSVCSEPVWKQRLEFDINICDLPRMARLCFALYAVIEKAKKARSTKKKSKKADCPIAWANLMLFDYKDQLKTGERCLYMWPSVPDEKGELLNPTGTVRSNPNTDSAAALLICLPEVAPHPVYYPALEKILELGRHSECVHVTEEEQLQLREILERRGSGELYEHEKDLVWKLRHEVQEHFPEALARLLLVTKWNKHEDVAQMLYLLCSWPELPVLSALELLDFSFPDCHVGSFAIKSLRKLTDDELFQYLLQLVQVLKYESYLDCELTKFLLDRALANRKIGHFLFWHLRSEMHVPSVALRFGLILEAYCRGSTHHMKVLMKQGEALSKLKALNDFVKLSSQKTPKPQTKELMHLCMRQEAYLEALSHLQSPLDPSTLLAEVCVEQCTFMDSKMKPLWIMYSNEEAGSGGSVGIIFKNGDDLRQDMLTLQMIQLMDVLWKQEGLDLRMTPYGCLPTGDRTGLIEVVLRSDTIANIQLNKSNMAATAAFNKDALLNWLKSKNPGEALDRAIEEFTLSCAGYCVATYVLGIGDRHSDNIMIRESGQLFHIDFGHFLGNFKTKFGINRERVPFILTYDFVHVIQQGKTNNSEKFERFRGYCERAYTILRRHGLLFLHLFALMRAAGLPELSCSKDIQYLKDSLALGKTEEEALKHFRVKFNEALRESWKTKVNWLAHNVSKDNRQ
Sequence of PI3Kδ (P27986 whole entry partner, canonical isoform): as the sequence (P27986 whole entry partner, canonical isoform) above
Sequence of PI3Kγ (P48736 whole entry, canonical isoform): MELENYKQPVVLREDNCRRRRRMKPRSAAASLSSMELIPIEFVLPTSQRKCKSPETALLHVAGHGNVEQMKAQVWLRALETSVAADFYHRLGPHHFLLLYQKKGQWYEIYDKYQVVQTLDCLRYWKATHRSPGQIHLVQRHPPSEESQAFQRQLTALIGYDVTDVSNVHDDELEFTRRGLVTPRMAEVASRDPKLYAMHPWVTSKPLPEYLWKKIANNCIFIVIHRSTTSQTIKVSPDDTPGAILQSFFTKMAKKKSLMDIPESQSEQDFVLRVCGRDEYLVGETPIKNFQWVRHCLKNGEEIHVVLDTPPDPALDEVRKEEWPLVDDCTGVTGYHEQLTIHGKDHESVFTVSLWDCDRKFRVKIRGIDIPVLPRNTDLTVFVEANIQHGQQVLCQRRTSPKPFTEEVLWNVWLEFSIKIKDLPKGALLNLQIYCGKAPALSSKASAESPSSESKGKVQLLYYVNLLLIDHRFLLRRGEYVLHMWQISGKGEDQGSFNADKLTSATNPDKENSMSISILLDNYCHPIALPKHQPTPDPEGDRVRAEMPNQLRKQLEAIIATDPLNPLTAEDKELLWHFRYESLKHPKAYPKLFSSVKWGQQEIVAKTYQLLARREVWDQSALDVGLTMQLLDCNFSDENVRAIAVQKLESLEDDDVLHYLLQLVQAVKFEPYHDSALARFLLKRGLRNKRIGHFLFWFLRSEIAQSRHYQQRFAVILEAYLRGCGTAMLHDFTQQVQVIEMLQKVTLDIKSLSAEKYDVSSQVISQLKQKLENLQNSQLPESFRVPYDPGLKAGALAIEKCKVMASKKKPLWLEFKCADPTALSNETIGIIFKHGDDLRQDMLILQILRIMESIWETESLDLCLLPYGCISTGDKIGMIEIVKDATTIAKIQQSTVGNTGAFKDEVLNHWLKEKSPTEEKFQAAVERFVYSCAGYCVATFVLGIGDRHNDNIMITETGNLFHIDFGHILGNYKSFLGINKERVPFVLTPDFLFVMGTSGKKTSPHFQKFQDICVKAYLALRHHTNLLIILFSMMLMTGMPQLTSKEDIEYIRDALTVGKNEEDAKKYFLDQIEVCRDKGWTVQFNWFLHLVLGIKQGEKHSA
Sequence of PI3Kγ (Q8WYR1 whole entry partner, canonical isoform): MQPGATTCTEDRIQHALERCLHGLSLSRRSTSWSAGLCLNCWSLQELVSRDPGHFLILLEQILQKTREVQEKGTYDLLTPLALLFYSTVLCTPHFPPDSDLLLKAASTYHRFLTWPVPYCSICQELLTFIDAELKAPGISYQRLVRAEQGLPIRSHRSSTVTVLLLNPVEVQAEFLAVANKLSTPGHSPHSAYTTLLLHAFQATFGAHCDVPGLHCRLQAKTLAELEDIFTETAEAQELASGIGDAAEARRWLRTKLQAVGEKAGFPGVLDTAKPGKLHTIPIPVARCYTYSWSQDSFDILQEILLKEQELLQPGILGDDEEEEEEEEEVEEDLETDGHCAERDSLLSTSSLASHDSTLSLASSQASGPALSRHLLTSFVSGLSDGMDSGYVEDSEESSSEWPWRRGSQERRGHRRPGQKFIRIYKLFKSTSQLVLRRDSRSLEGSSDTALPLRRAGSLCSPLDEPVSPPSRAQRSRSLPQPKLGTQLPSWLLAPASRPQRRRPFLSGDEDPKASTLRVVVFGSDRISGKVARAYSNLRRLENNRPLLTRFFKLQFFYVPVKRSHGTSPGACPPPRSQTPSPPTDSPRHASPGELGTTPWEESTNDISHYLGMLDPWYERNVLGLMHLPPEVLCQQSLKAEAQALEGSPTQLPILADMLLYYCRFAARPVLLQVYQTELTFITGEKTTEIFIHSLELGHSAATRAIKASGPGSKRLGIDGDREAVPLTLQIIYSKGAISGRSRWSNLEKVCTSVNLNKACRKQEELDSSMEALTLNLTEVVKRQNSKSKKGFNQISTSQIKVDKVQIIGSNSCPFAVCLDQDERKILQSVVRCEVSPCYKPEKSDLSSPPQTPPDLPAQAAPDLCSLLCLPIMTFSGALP

Broadly, the IC50 is the midpoint of a concentration-inhibition curve. For the compound `CCNC(=O)Nc1ccc(Cl)c(-n2c([C@H](C)Nc3ncnc(N)c3C#N)nc3cccc(Cl)c3c2=O)c1` (atropisomer, axis not shown) [Compound 58, (S)-1-(3-(2-(1-((6-amino-5-cyanopyrimidin-4-yl)amino)ethyl)-5-chloro-4-oxoquinazolin-3(4H)-yl)-4-chlorophenyl)-3-ethylurea], the IC50 was determined as 1.3 µM at PI3Kβ and 0.024 µM on PI3Kδ.

On to `Cc1nc(N)nc(N[C@H](c2nc3c(Cl)ccc(Cl)c3c(=O)n2-c2cccc(C(N)=O)c2)C2CC2)c1C#N` [Compound 13, (S)-3-(2-(((2-amino-5-cyano-6-methylpyrimidin-4-yl)amino)(cyclopropyl)methyl)-5,8-dichloro-4-oxoquinazolin-3(4H)-yl)benzamide], for which the figures for the IC50 on PI3Kβ and at PI3Kγ (setting [1]) were 0.007 µM and 0.51 µM, respectively. In the same order, the values of `CCC[C@H](Nc1nc(N)nc(N)c1C#N)c1nc2c(Cl)ccc(Cl)c2c(=O)n1-c1cccc(C(N)=O)c1` [Compound 20, (S)-3-(5,8-dichloro-2-(1-((2,6-diamino-5-cyanopyrimidin-4-yl)amino)butyl)-4-oxoquinazolin-3(4H)-yl)benzamide] are 0.011 µM and 1.4 µM. On to `N#Cc1c(N)nc(N)nc1N[C@H](c1nc2c(Cl)cc(F)cc2c(=O)n1-c1cccc(C(N)=O)c1)C1CC1` [Compound 27, (S)-3-(8-chloro-2-(cyclopropyl((2,6-diamino-5-cyanopyrimidin-4-yl)amino)methyl)-6-fluoro-4-oxoquinazolin-3(4H)-yl)benzamide], for which the results for the IC50 on PI3Kβ and on PI3Kδ were 0.005 µM and 0.002 µM, respectively. Consider `C[C@H](Nc1nc(N)nc(N)c1C#N)c1nc2c(Cl)cc(F)cc2c(=O)n1-c1cccc(C(N)=O)c1` [Compound 29], for which the half-inhibitory concentration (IC50) on PI3Kβ was 0.008 µM; at PI3Kγ (setting [1]), 0.44 µM. For `CCNC(=O)Nc1cccc(-n2c([C@@H](Nc3ncnc(N)c3C#N)[C@@H](C)CC)nc3cccc(Cl)c3c2=O)c1` [Compound 42, 1-(3-(2-((1S,2S)-1-((6-amino-5-cyanopyrimidin-4-yl)amino)-2-methylbutyl)-5-chloro-4-oxoquinazolin-3(4H)-yl)phenyl)-3-ethylurea] the same measures were 0.17 µM and over 10 µM.

For `CCNC(=O)Nc1cccc(-n2c([C@@H](C)Nc3ncnc(N)c3C#N)nc3cccc(Cl)c3c2=O)c1` [Compound 44, (R)-1-(3-(2-(1-((6-amino-5-cyanopyrimidin-4-yl)amino)ethyl)-5-chloro-4-oxoquinazolin-3(4H)-yl)phenyl)-3-ethylurea], the IC50 at PI3Kβ was 0.32 µM; on PI3Kγ (setting [1]), over 10 µM. For `CCNC(=O)Nc1cccc(-n2c([C@H](C)Nc3ncnc(N)c3C#N)nc3cccc(C(F)(F)F)c3c2=O)c1` [Compound 51, (S)-1-(3-(2-(1-((6-amino-5-cyanopyrimidin-4-yl)amino)ethyl)-4-oxo-5-(trifluoromethyl)quinazolin-3(4H)-yl)phenyl)-3-ethylurea], the IC50 on PI3Kβ came to 0.067 µM.

In the case of `CCNC(=O)Nc1cccc(-n2c([C@H](C)Nc3ncnc4[nH]cnc34)nc3c(F)ccc(Cl)c3c2=O)c1` [Compound 63, (S)-1-(3-(2-(1-((9H-purin-6-yl)amino)ethyl)-5-chloro-8-fluoro-4-oxoquinazolin-3(4H)-yl)phenyl)-3-ethylurea], the IC50 on PI3Kβ and on PI3Kδ was 0.029 µM each time. On to `CCNC(=O)Nc1cccc(-n2c([C@H](C)Nc3ncnn4ccnc34)nc3cccc(Cl)c3c2=O)c1` [Compound 71, (S)-1-(3-(5-chloro-2-(1-(imidazo[2,1-f][1,2,4]triazin-4-ylamino)ethyl)-4-oxoquinazolin-3(4H)-yl)phenyl)-3-ethylurea], for which the IC50 came to 0.029 µM at PI3Kβ and 2 µM on PI3Kγ (setting [1]). Consider `C[C@H](Nc1ncnc(N)c1C#N)c1nc2cccc(Cl)c2c(=O)n1-c1cccc(NC(=O)Nc2cc(C(C)(C)C)on2)c1` [Compound 74, (S)-1-(3-(2-(1-((6-amino-5-cyanopyrimidin-4-yl)amino)ethyl)-5 chloro-4-oxoquinazolin-3(4H)-yl)phenyl)-3-(5-(tert-butyl)isoxazol-3-yl)urea], for which the figures for the IC50 on PI3Kβ and on PI3Kδ were 0.011 µM and 0.003 µM, respectively. As for `CCNC(=O)Nc1cccc(-n2c([C@H](C)Nc3ncnc(N)c3C#N)nc3cccc(Cl)c3c2=O)c1` [Compound 90, (S)-1-(3-(2-(1-((6-amino-5-cyanopyrimidin-4-yl)amino)ethyl)-5-chloro-4-oxoquinazolin-3(4H)-yl)phenyl)-3-ethylurea], the IC50 on PI3Kβ came out at 0.005 µM; at PI3Kγ (setting [1]) it was 3.4 µM. In the case of `C[C@H](Nc1ncnc(N)c1C#N)c1nc2cccc(Cl)c2c(=O)n1-c1cccc(NC(=O)Nc2c(Cl)cccc2Cl)c1` [Compound 103, (S)-1-(3-(2-(1-((6-amino-5-cyanopyrimidin-4-yl)amino)ethyl)-5-chloro-4-oxoquinazolin-3(4H)-yl)phenyl)-3-(2,6-dichlorophenyl)urea], the IC50 at PI3Kβ was 0.002 µM; at PI3Kδ, 0.007 µM. `C[C@H](Nc1ncnc(N)c1C#N)c1nc2cccc(Cl)c2c(=O)n1-c1cccc(NC(=O)Nc2ccc(F)cc2F)c1` [Compound 105, (S)-1-(3-(2-(1-((6-amino-5-cyanopyrimidin-4-yl)amino)ethyl)-5-chloro-4-oxoquinazolin-3(4H)-yl)phenyl)-3-(2,4-difluorophenyl)urea]: the IC50 at PI3Kβ was found to be 0.003 µM; at PI3Kγ (setting [1]), 0.8 µM.

Consider `N#Cc1c(N)ncnc1N[C@@H](COCc1ccccc1)c1nc2cccc(Cl)c2c(=O)n1-c1cccc(NC(=O)NCCCO)c1` [Compound 130, (R)-1-(3-(2-(1-((6-amino-5-cyanopyrimidin-4-yl)amino)-2-(benzyloxy)ethyl)-5-chloro-4-oxoquinazolin-3(4H)-yl)phenyl)-3-(3-hydroxypropyl)urea], for which the values for the IC50 at PI3Kβ and at PI3Kγ were 0.024 µM and over 10 µM, respectively. Regarding `CCNC(=O)Nc1cccc(-n2c([C@H](COCc3ccccc3)Nc3ncnc4[nH]cnc34)nc3cccc(Cl)c3c2=O)c1` [Compound 133, (R)-1-(3-(2-(1-((9H-purin-6-yl)amino)-2-(benzyloxy)ethyl)-5-chloro-4-oxoquinazolin-3(4H)-yl)phenyl)-3-ethylurea], the IC50 at PI3Kβ came out at 0.05 µM; on PI3Kγ (setting [1]) it was 10 µM. As to `C[C@H](Nc1ncnc2[nH]cnc12)c1nc2cccc(Cl)c2c(=O)n1-c1cccc(NC(=O)Nc2ccccc2S(C)(=O)=O)c1` [Compound 145, (S)-1-(3-(2-(1-((9H-purin-6-yl)amino)ethyl)-5-chloro-4-oxoquinazolin-3(4H)-yl)phenyl)-3-(2-(methylsulfonyl)phenyl)urea], the results for the IC50 at PI3Kβ and at PI3Kδ were 0.03 µM and 0.008 µM, respectively. Take `COCCNC(=O)Nc1cccc(-n2c(C(C)Oc3ncnc4scnc34)nc3cccc(Cl)c3c2=O)c1` (stereo not shown) [Compound 149, 1-(3-(5-chloro-4-oxo-2-(1-(thiazolo[5,4-d]pyrimidin-7-yloxy)ethyl)quinazolin-3(4H)-yl)phenyl)-3-(2-methoxyethyl)urea]: the IC50 on PI3Kβ was 0.06 µM; on PI3Kγ (setting [1]), 3.5 µM. With `C[C@H](Nc1nc(N)nc(N)c1C#N)c1nc2cccc(Cl)c2c(=O)n1-c1ccccc1` [Compound X, (S)-2,4-diamino-6-((1-(5-chloro-4-oxo-3-phenyl-3,4-dihydroquinazolin-2-yl)ethyl)amino)pyrimidine-5-carbonitrile, reference compound], the PI3Kγ/PI3Kβ ratio on PI3Kβ is on record as 0.6; on PI3Kβ (listed as (S)-2,4-diamino-6-(1-(5-chloro-4-oxo-3-phenyl-3,4-dihydroquinazolin-2-yl)ethyl)) it was “less than 1”.
